Measurements as given in US4769389A, “Oxygenated-alkyl derivatives of glutamic and aspartic acids with antagonistic activity to bio-active polypeptides and a method for their preparation” (priority 1985, dated 1988).
Converted amounts (≈) assume the structure as drawn. Read-outs that look alike come from different tables or passages of the source.

Experiments:
guinea pig gall bladders = assay: Anti-CCK-8 activity on guinea-pig gallbladders in situ (in vivo); conditions: Cavia porcellus, iv; CCK-8 10 ng/kg i.v.; compound i.v.; read-out: ID50, anti-CCK-8 activity in situ
Experimental: In order to confirm the evidence of the studies in vitro, several of the more interesting compounds were tested in vivo with the use of guinea-pig gallbladders in situ.
The method used was that described by Ljungberg (Svensk. Farm. Tidskr. 69, 351-354, 1964).
Guinea-pigs having a weight of about 400 g anaesthetised with urethane were used; the substances being tested were administered intravenously (i.v.) into the jugular vein.
The responses of the gallbladder to the substances being tested were detected by means of a force transducer and recorded by means of a microdynamometer. 10 ng/kg of CCK 8 were chosen as the optimum contracting dose. The antagonistic compounds tested were administered in increasing doses so as to enable the calculation of an ID50 value, that is the dose (in mg/kg i.v.) having a 50% inhibiting effect against contractions induced by 10 ng/kg i.v. of CCK-8.

[1] = Body weight of rats treated daily by mouth for three weeks; type: in vivo
Experimental: (§1) The following tables give the average values of the food consumption and the average weight of each group of animals calculated weekly as well as the Student t value calculated between the various groups treated and the group of control animals. […] Each group received the drug (compound 1) in the doses indicated for three weeks daily by mouth. The drug in the form of the sodium salt was dissolved in water and administered in a volume of 10 ml of H2 O/kg while the control group received an equal volume of the solvent alone.

[2] = tested on: pancreatitis in rats induced experimentally by taurocholate; assay: Pancreatitis induced by sodium taurocolate in rats; type: in vivo; conditions: for ED50: Rattus norvegicus, ip, taurocholate, rats
Experimental: The products under examination were administered intraperitoneally (i.p.) 30 minutes before the operation and 3 hours after the operation. Six hours after the laparatomy the blood was removed from the retro-orbitory plexus after anaesthesia with ether, the animals were killed and the pancreas was removed and weighed. The activity of the serum amylase was determined by the method described above.

[3] = tested on: pancreatitis in mice induced experimentally by cerulein; assay: Pancreatitis induced by cerulein in mice; type: in vivo; conditions: for ED50: Mus musculus, ip, cerulein, mice
Experimental: Adult male mice received six injections of cerulein (Takus) (50 mcg/kg) each hour for six hours.
The compound was administered 30 minutes before each administration of cerulein. Nine hours after the beginning of the treatment, the blood was taken from the rectro-orbitory plexus after anaesthesia with ether, the animals were killed and the pancreas removed and weighed.

[4] = Food consumption in rats treated daily by mouth for three weeks; type: in vivo
Experimental: as §1

colon of rabbits = assay: Antispastic activity in the colon of rabbits stimulated with CCK-8; type: in vivo, rabbit; parameters: Antispastic activity in colon, EXPERIMENT 1 / Antispastic activity in colon, EXPERIMENT 2: unit not given here; conditions: CCK 100 ng/kg
Experimental: The abdomen of anaesthetised rabbit is cut open to display the tranverse colon. A small balloon full of water is inserted at an established point and connected to a pressure transducer by means of a polyethylene cannula filled with H2 O.
The optimum sensitivity being fixed in relation to the physiological contractions, the products were administered through the femeral vein. Contractions were induced by the administration of 100 ng/kg of CCK.

normal pancreatic cells = assay: Action on growth rate of normal pancreas induced by CCK-8 in hamsters; type: in vivo; conditions: for effect on normal pancreatic cells: in words
Excerpt: (§2) Male hamsters were innoculated in the cheek pouch with a suspension of 1×10^5 tumour cells of a pancreatic adenocarcinoma.
(§3) Fifteen days after this treatment the animals were killed and the normal pancreas and the pancreatic tumours initiated in the cheek pouch were removed and weighed.
(§4) The DNA was extracted and measured by conventional methods.
(§5) The results obtained are given in Table 11 in which they are expressed as average values±S.E.

digestive tract = assay: Antispastic activity, vegetable carbon test (speed of transit through stomach and intestine) in mice; type: in vivo; conditions: Mus musculus, ip, read-out: A[…] ED50 (dose which reduces the intestinal transit time of the carbon by 50%), intraperitoneally
Excerpt: The anti-spastic activity which the present compounds exert on the whole of the digestive tract is also considerable. Measured in mice with the vegetable carbon test (speed of transit through the stomach and intestine) this activity is illustrated in the following table: […]

[5] = in vivo, sc
guinea-pig gallbladder = assay: Anti-CCK activity on guinea-pig gallbladders in vitro (contraction by CCK-8); conditions: Cavia porcellus; CCK-8 10 ng/ml; in vitro
Experimental: ANTI-CCK ACTIVITY ON GUINEA-PIG GALLBLADDERS IN VITRO A longitudinal strip of guinea-pig gallbladder is placed in a bath for isolated organs in Krebs at a temperature of 32° C. and oxygenated continuously with an oxygen-CO2 mixture (95-[…]). The isometric contractions were detected by means of a force transducer and recorded. […] The results obtained are shown in Table 3 which gives the compounds tested and the IC50 values found which were calculated by the method of regression in a test of at least three experiments for each compound studied.

[6] = Tolerability in parenteral administration; conditions: i.v. sodium salt in water up to 1.5 percent, 10 ml/kg (150 mg/kg)
[7] = tested on: pancreatic adenocarcinoma; assay: Inhibiting action on rate of growth of a pancreatic adenocarcinoma induced by CCK-8 in hamsters; type: in vivo; conditions: for effect on growth of a pancreatic adenocarcinoma: in words
Excerpt: as §2, §3, §4, §5

[8] = compound 1 4 mg/kg + CCK-8 8 mcg/kg
[9] = CCK-8 8 mcg/kg three times a day

CCCCCN(CCCOC)C(=O)C(CCC(=O)O)NC(=O)c1ccc(Cl)c(Cl)c1 (racemic) [Compound 1]
ED50 (guinea pig gall bladders): 0.11 mg/kg | body weight ([1]; 0.625 mg/kg os, 1st week): 216.9 ± 3.8 g | body weight ([1]; 0.625 mg/kg os, 2nd week): 267.5 ± 3.9 g | body weight ([1]; 0.625 mg/kg os, 3rd week): 324 ± 3.6 g | body weight ([1]; 0.625 mg/kg os, time 0): 169.3 ± 1.9 g | body weight ([1]; 1.25 mg/kg os, 1st week): 242.7 ± 4.9 g | body weight ([1]; 1.25 mg/kg os, 2nd week): 318.3 ± 4.4 g | body weight ([1]; 1.25 mg/kg os, 3rd week): 371 ± 5.6 g | body weight ([1]; 1.25 mg/kg os, time 0): 168.3 ± 1.1 g | body weight ([1]; 2.5 mg/kg os, 1st week): 241.6 ± 3.7 g | body weight ([1]; 2.5 mg/kg os, 2nd week): 325.2 ± 5.5 g | body weight ([1]; 2.5 mg/kg os, 3rd week): 374.9 ± 5.1 g | body weight ([1]; 2.5 mg/kg os, time 0): 165.8 ± 1.3 g | weight increase compared with control animals ([1]; all treated groups, from the first week, in words): significantly higher weight increase than the control animals | AMYLASE IN THE SERUM ([2]; 5 mg/kg i.p. + taurocholate): 10.4 U/ml | INHIBITION OF AMYLASE INCREASE ([2]; 5 mg/kg i.p. + taurocholate): 47.0% | INHIBITION OF WEIGHT INCREASE ([2]; 5 mg/kg i.p. + taurocholate): 46.1% | AMYLASE IN THE SERUM ([2]; 10 mg/kg i.p. + taurocholate): 9.8 U/ml | INHIBITION OF AMYLASE INCREASE ([2]; 10 mg/kg i.p. + taurocholate): 64.7% | INHIBITION OF WEIGHT INCREASE ([2]; 10 mg/kg i.p. + taurocholate): 84.6% | AMYLASE IN THE SERUM ([2]; 20 mg/kg i.p. + taurocholate): 7.8 U/ml | INHIBITION OF AMYLASE INCREASE ([2]; 20 mg/kg i.p. + taurocholate): 123.5% | INHIBITION OF WEIGHT INCREASE ([2]; 20 mg/kg i.p. + taurocholate): 107.7% | ED50 ([2]; read-out: ED50, inhibition of amylase increase): 7.3 mg/kg | ED50 ([2]; read-out: ED50, inhibition of weight increase): 6.9 mg/kg | AMYLASE IN THE SERUM ([3]; 5 mg/kg ip + cerulein): 29.4 U/ml | INHIBITION OF WEIGHT INCREASE ([3]; 5 mg/kg ip + cerulein): 76.9% | INHIBITION OF WEIGHT INCREASE (pancreas) ([3]; 5 mg/kg ip + cerulein): 42.8% | AMYLASE IN THE SERUM ([3]; 7.5 mg/kg ip + cerulein): 25.6 U/ml | INHIBITION OF WEIGHT INCREASE ([3]; 7.5 mg/kg ip + cerulein): 81.6% | INHIBITION OF WEIGHT INCREASE (pancreas) ([3]; 7.5 mg/kg ip + cerulein): 71.4% | AMYLASE IN THE SERUM ([3]; 10 mg/kg ip + cerulein): 13.2 U/ml | INHIBITION OF WEIGHT INCREASE ([3]; 10 mg/kg ip + cerulein): 97.1% | INHIBITION OF WEIGHT INCREASE (pancreas) ([3]; 10 mg/kg ip + cerulein): 90.5% | ED50 ([3]; read-out: ED50 (inhibition of weight increase)): 4.2 mg/kg | ED50 ([3]; read-out: ED50, inhibition of weight increase of the pancreas): 5.5 mg/kg | increase in the food consumption compared with the controls ([4]; 0.625 mg/kg daily): about 20% | Food consumption ([4]; 0.625 mg/kg os, 1st week): 187.1 ± 6.3 g/week | Food consumption ([4]; 0.625 mg/kg os, 2nd week): 220 ± 3.9 g/week | Food consumption ([4]; 0.625 mg/kg os, 3rd week): 242.5 ± 3.3 g/week | Food consumption ([4]; 1.25 mg/kg os, 1st week): 205 ± 4.6 g/week | Food consumption ([4]; 1.25 mg/kg os, 2nd week): 217.5 ± 3.8 g/week | Food consumption ([4]; 1.25 mg/kg os, 3rd week): 253.5 ± 2.4 g/week | Food consumption ([4]; 2.5 mg/kg os, 1st week): 209.2 ± 3.3 g/week | Food consumption ([4]; 2.5 mg/kg os, 2nd week): 222.2 ± 2.6 g/week | Food consumption ([4]; 2.5 mg/kg os, 3rd week): 270.7 ± 4.5 g/week | increase in the food consumption compared with the controls ([4]; other doses tested (1.25, 2.5 mg/kg)): about 30% | Antispastic activity in colon, EXPERIMENT 1 (colon of rabbits; 0.3 mg/kg i.v.): -20.8 | Antispastic activity in colon, EXPERIMENT 2 (colon of rabbits; 0.3 mg/kg i.v.): -34.1 | Antispastic activity in colon, EXPERIMENT 1 (colon of rabbits; 1 mg/kg i.v.): -48.9 | Antispastic activity in colon, EXPERIMENT 2 (colon of rabbits; 1 mg/kg i.v.): -55.6 | Antispastic activity in colon, EXPERIMENT 1 (colon of rabbits; 3 mg/kg i.v.): -100.0 | Antispastic activity in colon, EXPERIMENT 2 (colon of rabbits; 3 mg/kg i.v.): -87.8 | ED50 (colon of rabbits; Oryctolagus cuniculus, iv): 1.24 mg/kg | PANCREATIC DNA (normal pancreatic cells; 4 mg/kg i.p. three times a day): 0.78 ± 0.03 mg | WEIGHT OF THE PANCREAS (normal pancreatic cells; 4 mg/kg i.p. three times a day): 351.2 ± 17.2 mg | PANCREATIC DNA (normal pancreatic cells; [8]): 0.83 ± 0.06 mg | WEIGHT OF THE PANCREAS (normal pancreatic cells; [8]): 370.2 ± 12.7 mg | effect on normal pancreatic cells (normal pancreatic cells): atagonises both these actions of CCK-8 to a highly significant extent | ED50 (digestive tract): 12.8 mg/kg | tissue damage [5]: does not moreover give rise to tissue damage | IC50 (guinea-pig gallbladder): 0.1 µg/mL (≈ 0.217 µM) | haemolysis [6]: without causing haemolysis | TUMORAL DNA ([7]; 4 mg/kg i.p. three times a day): 0.42 | WEIGHT OF THE PANCREATIC CARCINOMA ([7]; 4 mg/kg i.p. three times a day): 105.0 ± 4.1 mg | TUMORAL DNA [7, 8]: 0.44 | WEIGHT OF THE PANCREATIC CARCINOMA [7, 8]: 108.8 ± 5.4 mg | effect on growth of a pancreatic adenocarcinoma [7]: atagonises both these actions of CCK-8 to a highly significant extent

CCK-8: biologically active component of the hormone cholecystokinin [reference compound]
PANCREATIC DNA (normal pancreatic cells; [9]): 1.5 ± 0.06 mg | WEIGHT OF THE PANCREAS (normal pancreatic cells; [9]): 634.8 ± 20.8 mg | effect on normal pancreatic cells (normal pancreatic cells): has a trophic action on normal pancreatic cells | TUMORAL DNA [7, 9]: 0.7 | WEIGHT OF THE PANCREATIC CARCINOMA [7, 9]: 163.1 ± 4.7 mg | effect on growth of a pancreatic adenocarcinoma [7]: stimulates the growth of a pancreatic adenocacinoma
